Measurements published in ChEMBL document CHEMBL3822377, “Locking PDK1 in DFG-out conformation through 2-oxo-indole containing molecules: Another tools to fight glioblastoma” (Eur J Med Chem, 2016).
Active and inactive are the calls of the source. No cut-off for these calls is given here.

How the values were obtained:
[1] = target: Protein kinase C alpha type (Homo sapiens) (UniProt P17252); experiment: Inhibition of full-length human PRKCA expressed in baculovirus system at 100 nM by Z-lyte assay
[2] = target: PI3-kinase p110-alpha/p85-alpha (Homo sapiens) (UniProt P27986+P42336); experiment: Inhibition of His-tagged full-length human recombinant PIK3CA/PIK3R1 expressed in baculovirus system at 100 nM by adapta assay
[3] = target: Serine/threonine-protein kinase MARK1 (Homo sapiens) (UniProt Q9P0L2); experiment: Inhibition of GST-tagged full-length recombinant human MARK1 expressed in baculovirus system at 100 nM by Z-lyte assay
[4] = target: Casein kinase II subunit alpha' (Homo sapiens) (UniProt P19784); experiment: Inhibition of GST-tagged full-length human recombinant CSNK2A2 expressed in baculovirus system at 100 nM by Z-lyte assay
[5] = tested on: U-87 MG; experiment: Induction of apoptosis in human U87MG cells assessed as dead cells by measuring phosphatidylserine externalisation at 10 uM after 72 hrs in presence of 7-amino-actinomysin by AnnexinV/FITC staining-based flow cytometry (reference value: 2.1%); type: functional, U-87MG ATCC
[6] = target: Phosphatidylinositol 4,5-bisphosphate 3-kinase catalytic subunit gamma isoform (Homo sapiens) (UniProt P48736); experiment: Inhibition of His-tagged full-length human PIK3CG expressed in baculovirus system at 100 nM by adapta assay
[7] = target: T1, 3-phosphoinositide-dependent protein kinase 1 (Homo sapiens) (UniProt O15530); experiment: Inhibition of PDK1-mediated cell migration in human U87MG cells at 10 uM […] measured at 6 to 24 hrs by scratch wound assay; type: cell-based; details: U-87MG ATCC
T1 sequence (whole entry): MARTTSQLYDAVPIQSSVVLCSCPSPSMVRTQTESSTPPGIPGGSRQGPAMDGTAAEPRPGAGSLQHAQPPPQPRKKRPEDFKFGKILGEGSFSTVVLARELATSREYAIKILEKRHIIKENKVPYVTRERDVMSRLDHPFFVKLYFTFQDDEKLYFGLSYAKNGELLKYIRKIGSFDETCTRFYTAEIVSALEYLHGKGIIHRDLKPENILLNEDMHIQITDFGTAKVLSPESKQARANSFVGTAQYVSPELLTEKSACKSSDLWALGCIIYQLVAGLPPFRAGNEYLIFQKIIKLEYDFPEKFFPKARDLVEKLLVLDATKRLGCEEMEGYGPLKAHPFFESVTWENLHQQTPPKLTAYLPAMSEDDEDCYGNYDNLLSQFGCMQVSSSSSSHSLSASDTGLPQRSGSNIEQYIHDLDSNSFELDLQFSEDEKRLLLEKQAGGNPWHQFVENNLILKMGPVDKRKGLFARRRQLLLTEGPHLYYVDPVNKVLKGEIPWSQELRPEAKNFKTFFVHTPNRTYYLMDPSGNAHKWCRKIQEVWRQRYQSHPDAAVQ

[8] = target: Tyrosine-protein kinase ITK/TSK (Homo sapiens) (UniProt Q08881); experiment: Inhibition of cytosolic GST-tagged full-length recombinant human ITK expressed in baculovirus system at 100 nM by Z-lyte assay
[9] = target: Serine/threonine-protein kinase PAK 6 (Homo sapiens) (UniProt Q9NQU5); experiment: Inhibition of His-tagged full-length recombinant human PAK6 expressed in baculovirus system at 100 nM by Z-lyte assay
[10] = target: Interleukin-1 receptor-associated kinase 4 (Homo sapiens) (UniProt Q9NWZ3); experiment: Inhibition of His-tagged full-length human IRAK4 expressed in baculovirus system at 100 nM by Z-lyte assay
[11] = target: Cyclin-dependent kinase 5/CDK5 activator 1 (Homo sapiens) (UniProt Q00535+Q15078); experiment: Inhibition of His-tagged full-length human CDK5/p35 expressed in baculovirus system at 100 nM by Z-lyte assay
[12] = target: RAC-gamma serine/threonine-protein kinase (Homo sapiens) (UniProt Q9Y243); experiment: Inhibition of His-tagged full-length human AKT3 expressed in baculovirus system at 100 nM by Z-lyte assay
[13] = Antiproliferative activity against human U87MG cells at 0.001 to 100 uM after 24 hrs by MTS assay; type: functional, U-87MG ATCC
[14] = target: Serine/threonine-protein kinase MRCK alpha (Homo sapiens) (UniProt Q5VT25); experiment: Inhibition of His-tagged human CDC42 BPA expressed in baculovirus system at 100 nM by Z-lyte assay
[15] = (§1) Antiproliferative activity against human U87MG cells after 72 hrs by MTS assay; type: functional, cell-based, U-87MG ATCC; details: U-87 MG
[16] = tested on: U-87MG ATCC; experiment: as §1; type: functional, cell-based
[17] = target: Ribosomal protein S6 kinase alpha-1 (Homo sapiens) (UniProt Q15418); experiment: Inhibition of His-tagged full-length recombinant human RSK1 expressed in baculovirus system at 100 nM by Z-lyte assay
[18] = target: Rho-associated protein kinase 1 (Homo sapiens) (UniProt Q13464); experiment: Inhibition of catalytic GST-tagged human ROCK1 expressed in baculovirus system at 100 nM by Z-lyte assay
[19] = target: Inhibitor of nuclear factor kappa-B kinase subunit alpha (Homo sapiens) (UniProt O15111); experiment: Inhibition of His-tagged full-length human IKKalpha expressed in baculovirus system at 100 nM by adapta assay
[20] = tested on: U-87 MG; experiment: Induction of apoptosis in human U87MG cells assessed as late apoptotic cells by measuring phosphatidylserine externalisation at 10 uM after 72 hrs in presence of 7-amino-actinomysin by AnnexinV/FITC staining-based flow cytometry (reference value: 4.46%); type: functional, U-87MG ATCC
[21] = target: RAC-alpha serine/threonine-protein kinase (Homo sapiens) (UniProt P31749); experiment: Inhibition of His-tagged full-length human AKT1 expressed in baculovirus system at 100 nM by Z-lyte assay
[22] = target: Ribosomal protein S6 kinase beta-1 (Homo sapiens) (UniProt P23443); experiment: Inhibition of catalytic GST-tagged human RPS6KB1 expressed in baculovirus system at 100 nM by Z-lyte assay
[23] = tested on: U-87 MG; experiment: Induction of apoptosis in human U87MG cells assessed as live cells by measuring phosphatidylserine externalisation at 10 uM after 72 hrs by AnnexinV/FITC staining-based flow cytometry (reference value: 87.05%); type: functional, U-87MG ATCC
[24] = target: Phosphatidylinositol 4-kinase beta (Homo sapiens) (UniProt Q9UBF8); experiment: Inhibition of GST-tagged full-length human PI4K beta expressed in baculovirus system at 100 nM by adapta assay
[25] = target: Mitogen-activated protein kinase 1 (Homo sapiens) (UniProt P28482); experiment: Inhibition of GST-tagged full-length human MAPK1 expressed in Escherichia coli at 100 nM by Z-lyte assay
[26] = target: Proto-oncogene tyrosine-protein kinase Src (Homo sapiens) (UniProt P12931); experiment: Inhibition of His-tagged full-length recombinant human SRC expressed in baculovirus system at 100 nM by Z-lyte assay
[27] = target: PI3-kinase p110-delta/p85-alpha (Homo sapiens) (UniProt P27986+O00329); experiment: Inhibition of His-tagged full-length human PIK3CD/PIK3R1 expressed in baculovirus system at 100 nM by adapta assay
[28] = target: Tyrosine-protein kinase ABL1 (Homo sapiens) (UniProt P00519); experiment: Inhibition of His-tagged full-length human ABL1 expressed in baculovirus system at 100 nM by Z-lyte assay

Ribosomal protein S6 kinase alpha-1 (Homo sapiens), sequence (Q15418 whole entry): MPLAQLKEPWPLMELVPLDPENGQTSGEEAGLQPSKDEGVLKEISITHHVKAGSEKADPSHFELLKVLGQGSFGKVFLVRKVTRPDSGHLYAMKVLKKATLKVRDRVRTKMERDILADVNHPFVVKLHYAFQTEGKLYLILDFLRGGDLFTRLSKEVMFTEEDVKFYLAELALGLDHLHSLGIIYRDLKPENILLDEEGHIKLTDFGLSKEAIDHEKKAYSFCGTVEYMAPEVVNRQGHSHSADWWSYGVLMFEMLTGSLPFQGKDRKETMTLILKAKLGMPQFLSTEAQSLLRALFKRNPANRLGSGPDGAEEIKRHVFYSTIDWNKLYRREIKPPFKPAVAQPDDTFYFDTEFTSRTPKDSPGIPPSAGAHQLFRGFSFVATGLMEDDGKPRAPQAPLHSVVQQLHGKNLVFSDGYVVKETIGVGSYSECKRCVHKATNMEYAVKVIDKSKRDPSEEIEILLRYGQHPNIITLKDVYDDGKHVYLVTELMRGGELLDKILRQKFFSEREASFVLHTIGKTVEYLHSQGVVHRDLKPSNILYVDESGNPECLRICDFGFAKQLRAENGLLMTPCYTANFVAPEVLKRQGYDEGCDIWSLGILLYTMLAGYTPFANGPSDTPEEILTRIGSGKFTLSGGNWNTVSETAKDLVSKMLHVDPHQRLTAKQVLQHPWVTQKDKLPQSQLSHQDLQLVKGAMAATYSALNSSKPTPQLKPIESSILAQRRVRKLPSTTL
Proto-oncogene tyrosine-protein kinase Src (Homo sapiens), sequence (P12931 2-536 limits assumed): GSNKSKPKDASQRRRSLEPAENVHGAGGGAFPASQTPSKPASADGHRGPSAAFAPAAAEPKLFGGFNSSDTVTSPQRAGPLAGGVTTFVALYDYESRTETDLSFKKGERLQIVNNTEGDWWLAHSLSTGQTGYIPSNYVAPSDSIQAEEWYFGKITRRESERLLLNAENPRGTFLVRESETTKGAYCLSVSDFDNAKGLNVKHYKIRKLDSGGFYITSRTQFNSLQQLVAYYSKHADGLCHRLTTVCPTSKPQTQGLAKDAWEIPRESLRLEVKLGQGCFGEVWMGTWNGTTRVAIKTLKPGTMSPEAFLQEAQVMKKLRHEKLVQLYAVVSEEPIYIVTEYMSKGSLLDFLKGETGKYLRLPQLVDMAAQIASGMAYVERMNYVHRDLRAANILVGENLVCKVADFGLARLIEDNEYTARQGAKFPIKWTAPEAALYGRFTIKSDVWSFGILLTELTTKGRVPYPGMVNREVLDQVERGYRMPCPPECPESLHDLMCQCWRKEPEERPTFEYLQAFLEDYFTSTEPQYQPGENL
Mitogen-activated protein kinase 1 (Homo sapiens), sequence (P28482 whole entry): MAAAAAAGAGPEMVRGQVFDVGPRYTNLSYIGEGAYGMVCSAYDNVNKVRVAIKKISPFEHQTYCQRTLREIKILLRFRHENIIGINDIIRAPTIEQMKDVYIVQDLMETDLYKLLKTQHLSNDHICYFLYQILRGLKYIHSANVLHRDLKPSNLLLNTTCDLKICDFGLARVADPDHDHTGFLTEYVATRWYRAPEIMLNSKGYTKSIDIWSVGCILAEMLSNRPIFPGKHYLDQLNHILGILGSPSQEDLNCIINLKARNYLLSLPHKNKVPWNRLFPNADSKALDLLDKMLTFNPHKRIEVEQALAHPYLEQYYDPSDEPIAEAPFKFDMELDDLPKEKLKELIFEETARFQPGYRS
RAC-gamma serine/threonine-protein kinase (Homo sapiens), sequence (Q9Y243 whole entry): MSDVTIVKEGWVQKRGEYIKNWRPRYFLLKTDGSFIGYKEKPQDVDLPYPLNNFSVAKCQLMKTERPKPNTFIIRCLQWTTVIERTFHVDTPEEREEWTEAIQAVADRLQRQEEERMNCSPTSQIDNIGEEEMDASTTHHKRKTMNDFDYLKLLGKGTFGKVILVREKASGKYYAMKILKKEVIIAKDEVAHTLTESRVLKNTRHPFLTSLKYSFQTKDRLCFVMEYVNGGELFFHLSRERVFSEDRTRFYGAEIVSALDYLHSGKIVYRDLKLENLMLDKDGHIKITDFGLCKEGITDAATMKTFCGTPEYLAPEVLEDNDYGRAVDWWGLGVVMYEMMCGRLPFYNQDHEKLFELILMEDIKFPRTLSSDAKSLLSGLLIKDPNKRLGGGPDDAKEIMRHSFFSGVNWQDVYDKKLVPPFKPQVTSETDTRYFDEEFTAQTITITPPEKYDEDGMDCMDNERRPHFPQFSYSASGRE
Tyrosine-protein kinase ITK/TSK (Homo sapiens), sequence (Q08881 whole entry): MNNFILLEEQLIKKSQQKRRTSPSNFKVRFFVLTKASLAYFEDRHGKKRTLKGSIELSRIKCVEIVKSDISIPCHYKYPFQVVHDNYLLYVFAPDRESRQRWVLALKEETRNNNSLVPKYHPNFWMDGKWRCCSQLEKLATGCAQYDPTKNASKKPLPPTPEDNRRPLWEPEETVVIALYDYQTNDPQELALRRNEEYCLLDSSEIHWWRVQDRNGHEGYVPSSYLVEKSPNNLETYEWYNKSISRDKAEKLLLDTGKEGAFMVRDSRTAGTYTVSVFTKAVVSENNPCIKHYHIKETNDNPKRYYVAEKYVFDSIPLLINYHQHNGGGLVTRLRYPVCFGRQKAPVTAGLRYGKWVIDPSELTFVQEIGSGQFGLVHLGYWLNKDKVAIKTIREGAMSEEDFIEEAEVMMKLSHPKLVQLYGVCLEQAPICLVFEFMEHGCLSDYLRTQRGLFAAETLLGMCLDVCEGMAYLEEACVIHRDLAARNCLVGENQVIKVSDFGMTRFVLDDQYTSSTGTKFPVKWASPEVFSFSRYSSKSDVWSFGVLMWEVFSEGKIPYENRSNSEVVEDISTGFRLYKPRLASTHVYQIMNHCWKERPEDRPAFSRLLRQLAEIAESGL
Rho-associated protein kinase 1 (Homo sapiens), sequence (Q13464 2-1354 limits assumed): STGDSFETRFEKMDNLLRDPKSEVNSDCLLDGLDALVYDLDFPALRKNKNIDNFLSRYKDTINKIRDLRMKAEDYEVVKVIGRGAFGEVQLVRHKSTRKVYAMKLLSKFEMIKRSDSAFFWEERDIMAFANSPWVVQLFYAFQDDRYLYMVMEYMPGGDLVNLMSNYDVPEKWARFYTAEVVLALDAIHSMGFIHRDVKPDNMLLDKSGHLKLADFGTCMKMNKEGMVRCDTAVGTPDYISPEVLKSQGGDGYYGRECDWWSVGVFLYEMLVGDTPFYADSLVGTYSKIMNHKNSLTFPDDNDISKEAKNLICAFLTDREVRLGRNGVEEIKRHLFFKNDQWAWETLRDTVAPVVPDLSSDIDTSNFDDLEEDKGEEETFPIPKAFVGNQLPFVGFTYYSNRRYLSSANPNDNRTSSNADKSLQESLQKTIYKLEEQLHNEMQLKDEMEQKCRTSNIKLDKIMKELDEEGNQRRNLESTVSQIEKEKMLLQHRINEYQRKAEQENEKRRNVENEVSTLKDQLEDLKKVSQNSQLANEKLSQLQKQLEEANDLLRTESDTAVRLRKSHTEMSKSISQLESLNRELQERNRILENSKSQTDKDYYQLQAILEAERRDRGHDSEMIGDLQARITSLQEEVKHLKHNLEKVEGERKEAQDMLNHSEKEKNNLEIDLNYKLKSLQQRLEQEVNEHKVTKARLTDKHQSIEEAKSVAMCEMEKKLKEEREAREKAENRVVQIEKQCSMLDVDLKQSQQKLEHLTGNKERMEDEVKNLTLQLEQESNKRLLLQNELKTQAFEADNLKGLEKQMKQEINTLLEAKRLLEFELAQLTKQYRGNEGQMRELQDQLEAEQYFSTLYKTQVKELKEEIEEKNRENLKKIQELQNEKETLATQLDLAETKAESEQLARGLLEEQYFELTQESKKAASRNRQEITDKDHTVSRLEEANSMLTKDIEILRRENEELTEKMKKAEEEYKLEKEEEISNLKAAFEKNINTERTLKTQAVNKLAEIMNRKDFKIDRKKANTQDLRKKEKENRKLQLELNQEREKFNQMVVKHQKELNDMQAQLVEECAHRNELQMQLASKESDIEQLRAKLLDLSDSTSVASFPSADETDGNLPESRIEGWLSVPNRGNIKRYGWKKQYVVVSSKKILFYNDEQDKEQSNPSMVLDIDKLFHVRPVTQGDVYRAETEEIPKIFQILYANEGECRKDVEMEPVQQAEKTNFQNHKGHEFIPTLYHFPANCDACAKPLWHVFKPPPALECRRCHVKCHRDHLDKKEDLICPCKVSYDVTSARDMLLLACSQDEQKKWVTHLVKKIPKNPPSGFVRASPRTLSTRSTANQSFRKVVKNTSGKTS

Which inhibition [1] does the source give for `O=C(CNC(=O)c1cccn(Cc2ccc(F)c(F)c2)c1=O)Nc1ccc2c(c1)/C(=C/c1cnc[nH]1)C(=O)N2` here?
The inhibition was 0%.

What about the inhibition [2] of the same compound?
The inhibition was 20%.

What about the inhibition [3] of the same compound?
The inhibition was 17%.

What about the inhibition [4] of the same compound?
The inhibition was 3%.

What about the Activity [5] of the same compound?
The Activity was 0.64%.

And the inhibition [6]?
The inhibition was 2%.

What about the inhibition [7] of the same compound?
The inhibition was “Active”.

What about the inhibition [8] of the same compound?
The inhibition was 14%.

What about the inhibition [9] of the same compound?
The inhibition was -4%.

What about the inhibition [10] of the same compound?
The inhibition was -6%.

And the inhibition [11]?
Its inhibition is 2%.

And the inhibition [12]?
The inhibition was 2%.

What about the Imax [13] of the same compound?
Its Imax is 41%.

What about the inhibition [14] of the same compound?
Its inhibition is -3%.

And the IC50 [15]?
The IC50 was 450 nM.

What about the inhibition [16] of the same compound?
Its inhibition is “Dose-dependent effect”.

What about the inhibition [17] of the same compound?
The inhibition was 2%.

What about the inhibition [18] of the same compound?
Its inhibition is -7%.

What about the inhibition [19] of the same compound?
The inhibition was 3%.

And the Activity [20]?
The Activity was 5.65%.

What about the inhibition [21] of the same compound?
The inhibition was -8%.

What about the inhibition [22] of the same compound?
Its inhibition is -6%.

What about the Activity [23] of the same compound?
The Activity was 76.41%.

And the inhibition [24]?
The inhibition was 4%.

What about the inhibition [25] of the same compound?
Its inhibition is 6%.

What about the inhibition [26] of the same compound?
The inhibition was 7%.

And the inhibition [27]?
Its inhibition is 17%.

What about the inhibition [28] of the same compound?
The inhibition was 14%.
